In patent US9469615B2, “Quinoxalines and AZA-quinoxalines as CRTH2 receptor modulators” (Merck Sharp & Dohme Corp., priority 2010, dated 2016):

Target: T1, hCRTH2 (Homo sapiens, UniProt Q9Y5Y4)
T1 construct: expressed in transfected cells; host or cells: HEK (human embryonic kidney) cells expressing hCRTH2; membrane preparation
T1 sequence (Q9Y5Y4 1-395): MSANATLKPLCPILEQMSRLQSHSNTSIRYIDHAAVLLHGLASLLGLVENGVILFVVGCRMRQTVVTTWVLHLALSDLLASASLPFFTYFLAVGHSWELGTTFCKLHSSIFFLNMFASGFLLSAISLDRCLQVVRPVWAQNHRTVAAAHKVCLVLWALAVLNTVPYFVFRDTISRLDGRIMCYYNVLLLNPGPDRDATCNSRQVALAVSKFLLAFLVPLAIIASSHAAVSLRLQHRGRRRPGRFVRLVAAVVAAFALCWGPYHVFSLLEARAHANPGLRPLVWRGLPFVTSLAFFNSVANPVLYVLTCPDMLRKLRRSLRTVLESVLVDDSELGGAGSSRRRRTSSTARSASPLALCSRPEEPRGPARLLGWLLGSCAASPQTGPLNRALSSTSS
Experiment: Radioligand binding assay ([3H]PGD2 competition, HEK-hCRTH2 membranes)
Conditions: [3H]PGD2 competition, Table B
Summary of the method: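 Competition against 3.0 nM [3H]PGD2 was run for 60 min at room temperature in pH 7.4 Tris-HCl buffer with EDTA, 2 mM MnCl2 and 1% DMSO, using 8-20 μg HEK-hCRTH2 membrane protein. 10 μM PGD2 set non-specific binding; filter-bound counts were read by scintillation.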

Compound | Ki [nM]
O=C(O)CCCCc1nc2cc(C(=O)N3CCn4cc(C(F)(F)F)nc4C3)ccc2nc1-c1ccc(Cl)cc1 [compound 668, 5-(3-(4-chlorophertyl)-7-(2-(trifluoromethyl)-5,6,7,8-tetrahydroimidazo[1,2-a]pyrazine-7-carbonyl)quinoxalin-2-yl)pentanoic acid] | 20.1 to 200
O=C(O)CCCCc1nc2cc(C(=O)N3CCN(c4ccc(Cl)cn4)CC3)ccc2nc1-c1ccc(Cl)cc1 [compound 669, 5-(3-(4-chlorophenyl)-7-(4-(5-chloropyridin-2-yl)piperazine-1-carbonyl)quinoxalin-2-yl)pentanoic acid] | 2.1 to 20
Cc1nc(CN2CCN(C(=O)c3ccc4nc(-c5ccc(Cl)cc5)c(CCCCC(=O)O)nc4c3)CC2)cs1 [compound 670, 5-(3-(4-chlorophenyl)-7-(4-((2-methylthiazol-4-yl)methyl)piperazine-1-carbonyl)quinoxalin-2-yl)pentanoic acid] | 2.1 to 20
Cn1cc(N2CCN(C(=O)c3ccc4nc(-c5ccc(Cl)cc5)c(CCCCC(=O)O)nc4c3)CC2)cn1 [compound 671, 5-(3-(4-chlorophenyl)-7-(4-(1-methyl-1H-pyrazol-4-yl)piperazine-1-carbonyl)quinoxalin-2-yl)pentanoic acid] | 20.1 to 200
C[C@@H]1CN(C(=O)c2ccc3nc(-c4ccc(Cl)cc4)c(CCCCC(=O)O)nc3c2)[C@@H](C)CN1c1ccccc1 [compound 672, 5-(3-(4-chlorophenyl)-7-((2S,5R)-2,5-dimethyl-4-phenylpiperazine-1-carbonyl)quinoxalin-2-yl)pentanoic acid] | 20.1 to 200
CCc1nnc2n1CCN(C(=O)c1ccc3nc(-c4ccc(Cl)cc4)c(CCCCC(=O)O)nc3c1)C2 [compound 673, 5-(3-(4-chlorophenyl)-7-(3-ethyl-5,6,7,8-tetrahydro-[1,2,4]triazolo[4,3-a]pyrazine-7-carbonyl)quinoxalin-2-yl)pentanoic acid] | 20.1 to 200
CN1CCN(C(=O)c2ccc3nc(-c4ccc(Cl)cc4)c(CCCCC(=O)O)nc3c2)CC1c1ccccc1 (stereo not drawn) [compound 674, 5-(3-(4-chlorophenyl)-7-(4-methyl-3-phenylpiperazine-1-carbonyl)quinoxalin-2-yl)pentanoic acid] | 2.1 to 20
Cc1nonc1N1CCN(C(=O)c2ccc3nc(-c4ccc(Cl)cc4)c(CCCCC(=O)O)nc3c2)CC1 [compound 675, 5-(3-(4-chlorophenyl)-7-(4-(4-methyl-1,2,5-oxadiazol-3-yl)piperazine-1-carbonyl)quinoxalin-2-yl)pentanoic acid] | 2.1 to 20
O=C(O)CCCCc1nc2cc(C(=O)N3CCN(c4ncccc4Cl)CC3)ccc2nc1-c1ccc(Cl)cc1 [compound 676, 5-(3-(4-chlorophenyl)-7-(4-(3-chloropyridin-2-yl)piperazine-1-carbonyl)quinoxalin-2-yl)pentanoic acid] | 2.1 to 20
O=C(O)CCCCc1nc2cc(C(=O)N3C[C@@H]4C[C@H]3CN4c3cccc(F)c3)ccc2nc1-c1ccc(Cl)cc1 [compound 677, 5-(3-(4-chlorophenyl)-7-((1S,4S)-5-(3-fluorophenyl)-2,5-diazabicyclo[2.2.1]heptane-2-carbonyl)quinoxalin-2-yl)pentanoic acid] | 2.1 to 20
O=C(O)CCCCc1nc2cc(C(=O)N3CCN(C4CCCCC4)C(=O)C3)ccc2nc1-c1ccc(Cl)cc1 [compound 678, 5-(3-(4-chlorophenyl)-7-(4-cyclohexyl-3-oxo-piperazine-1-carbonyl)quinoxalin-2-yl)pentanoic acid] | 2.1 to 20
O=C(O)CCCCc1nc2cc(C(=O)N3CCN(c4cccnc4)CC3)ccc2nc1-c1ccc(Cl)cc1 [compound 679, 5-(3-(4-chlorophenyl)-7-(4-(pyridin-3-y)piperazine-1-carbonyl)quinoxalin-2-yl)pentanoic acid] | 2.1 to 20
O=C(O)CCCCc1nc2cc(C(=O)N3C[C@@H]4C[C@H]3CN4c3ccc(F)cc3)ccc2nc1-c1ccc(Cl)cc1 [compound 680, 5-(3-(4-chlorophenyl)-7-((1S,4S)-5-(4-fluorophenyl)-2,5-diazabicyclo[2.2.1]heptane-2-carbonyl)quinoxalin-2-yl)pentanoic acid] | 2.1 to 20
Cc1cnc(C)c(N2CCN(C(=O)c3ccc4nc(-c5ccc(Cl)cc5)c(CCCCC(=O)O)nc4c3)CC2)n1 [compound 681, 5-(3-(4-chlorophenyl)-7-(4-(3,6-dimethylpyrazin-2-yl)piperazine-1-carbonyl)quinoxalin-2-yl)pentanoic acid] | 2.1 to 20
O=C(O)CCCCc1nc2cc(C(=O)N3CCN(Cc4ccncc4)CC3)ccc2nc1-c1ccc(Cl)cc1 [compound 682, 5-(3-(4-chlorophenyl)-7-(4-(pyridin-4-ylmethyl)piperazine-1-carbonyl)quinoxalin-2-yl)pentanoic acid] | 20.1 to 200
Cc1cnccc1N1CCN(C(=O)c2ccc3nc(-c4ccc(Cl)cc4)c(CCCCC(=O)O)nc3c2)CC1 [compound 683, 5-(3-(4-chlorophenyl)-7-(4-(3-methylpyridin-4-yl)piperazine-1-carbonyl)quinoxalin-2-yl)pentanoic acid] | 2.1 to 20
Cc1cc(N2CCN(C(=O)c3ccc4nc(-c5ccc(Cl)cc5)c(CCCCC(=O)O)nc4c3)CC2)sn1 [compound 684, 5-(3-(4-chlorophenyl)-7-(4-(3-methylisothiazol-5-yl)piperazine-1-carbonyl)quinoxalin-2-yl)pentanoic acid] | 2.1 to 20
O=C(O)CCCCc1nc2cc(C(=O)N3CCN(c4nnc(C5CC5)o4)CC3)ccc2nc1-c1ccc(Cl)cc1 [compound 685, 5-(3-(4-chlorophenyl)-7-(4-(5-cyclopropyl-1,3,4-oxadiazo1-2-yl)piperazine-1-carbonyl)quinoxalin-2-yl)pentanoic acid] | 20.1 to 200
O=C(O)CCCCc1nc2cc(C(=O)N3C[C@@H]4C[C@H]3CN4Cc3ccccc3)ccc2nc1-c1ccc(Cl)cc1 [compound 686, 5-(7-((1S,4S)-5-benzyl-2,5-diazabicyclo[2.2.1]heptane-2-carbonyl)-3-(4-chlorophenyl)quinoxalin-2-yl)pentanoic acid] | 20.1 to 200
O=C(O)CCCCc1nc2cc(C(=O)N[C@H](CO)c3ccc(F)cc3)ccc2nc1-c1ccc(Cl)cc1 [compound 687, (S)-5-(3-(4-chlorophenyl)-7-((1-(4-fluorophenyl)-2-hydroxyethyl)carbamoyl)quinoxalin-2-yl) pentanoic acid] | 2.1 to 20
O=C(O)CCCCc1nc2cc(C(=O)N[C@H](CO)c3ccc(F)cc3)ccc2nc1-c1ccccc1 [compound 688, (S)-5-(7-((1-(4-fluorophenyl)-2-hydroxyethyl)carbamoyl)-3-phenylquinoxalin-2-yl)pentanoic acid] | 20.1 to 200
O=C(O)CCCCc1nc2cc(C(=O)N3CCC(O)(c4ccccc4)C3)ccc2nc1-c1ccc(Cl)cc1 (stereo not drawn) [compound 689, 5-(3-(4-chlorophenyl)-7-(3-hydroxy-3-phenylpyrrolidine-1-carbonyl)quinoxalin-2-yl)pentanoic acid] | 2.1 to 20
O=C(O)CCCCc1nc2cc(C(=O)N3CC4CC4(c4ccccc4)C3)ccc2nc1-c1ccc(Cl)cc1 (stereo not drawn) [compound 690, 5-(3-(4-chlorophenyl)-7-(1-phenyl-3-azabicyclo[3.1.0]hexane-3-carbonyl)quinoxalin-2-yl)pentanoic acid] | 2.1 to 20
O=C(O)CCCCc1nc2cc(C(=O)NC3CC(=O)Nc4ccccc43)ccc2nc1-c1ccc(Cl)cc1 (stereo not drawn) [compound 691, 5-(3-(4-chlorophenyl)-7-((2-oxo-1,2,3,4-tetrahydroquinolin-4-yl)carbamoyl)quinoxalin-2-yl)pentanoic acid] | 2.1 to 20
O=C(O)CCCCc1nc2cc(C(=O)N[C@H]3CCOc4cc(C(F)(F)F)ccc43)ccc2nc1-c1ccc(Cl)cc1 [compound 692, (S)-5-(3-(4-chlorophenyl)-7-((7-(trifluoromethyl)chroman-4-yl)carbamoyl)quinoxalin-2-yl)pentanoic acid] | 2.1 to 20
CC(C)(NC(=O)c1ccc2nc(-c3ccc(Cl)cc3)c(CCCCC(=O)O)nc2c1)c1ccc(F)cc1 [compound 693, 5-(3-(4-chlorophenyl)-7-((2-(4-fluorophenyl)propan-2-yl)carbamoyl)quinoxalin-2-yl)pentanoic acid] | 2.1 to 20
O=C(O)CCCCc1nc2cc(C(=O)NC3CCOc4c(F)cc(F)cc43)ccc2nc1-c1ccc(Cl)cc1 (stereo not drawn) [compound 694, 5-(3-(4-chlorophenyl)-7-((6,8-difluorochroman-4-yl)carbamoyl)quinoxalin-2-yl)pentanoic acid] | 2.1 to 20
CN1C(=O)c2ccccc2C12CCN(C(=O)c1ccc3nc(-c4ccc(Cl)cc4)c(CCCCC(=O)O)nc3c1)CC2 [compound 695, 5-(3-(4-chlorophenyl)-7-(2-methyl-3-oxospiro[isoindoline-1,4′-piperidin]-1′-ylcarbonyl)quinoxalin-2-yl)pentanoic acid] | 2.1 to 20
CC1(C)Oc2ccccc2C(NC(=O)c2ccc3nc(-c4ccc(Cl)cc4)c(CCCCC(=O)O)nc3c2)C1O (stereo not drawn) [compound 696, 5-(3-(4-chlorophenyl)-7-((3-hydroxy-2,2-dimethylchroman-4-yl)carbamoyl)quinoxalin-2-yl)pentanoic acid] | 2.1 to 20
CS(=O)(=O)c1ccccc1N1CCN(C(=O)c2ccc3nc(-c4ccc(Cl)cc4)c(CCCCC(=O)O)nc3c2)CC1 [compound 697, 5-(3-(4-chlorophenyl)-7-(4-(2-(methylsulfonyl)phenyl)piperazine-1-carbonyl)quinoxalin-2-yl)pentanoic acid] | 2.1 to 20
